Key:
LigF = biological target: T1, LigF (Sphingobium sp., UniProt P30347); assay: In vitro LigF cleavage of prodrug, HPLC-MS/MS; type: biochemical, Sphingobium sp. strain SYK-6; conditions: 37° C.
T1 construct: made in house; host or cells: E. coli BL21 (DE3) Rosetta lysS
T1 sequence (P30347 1-257): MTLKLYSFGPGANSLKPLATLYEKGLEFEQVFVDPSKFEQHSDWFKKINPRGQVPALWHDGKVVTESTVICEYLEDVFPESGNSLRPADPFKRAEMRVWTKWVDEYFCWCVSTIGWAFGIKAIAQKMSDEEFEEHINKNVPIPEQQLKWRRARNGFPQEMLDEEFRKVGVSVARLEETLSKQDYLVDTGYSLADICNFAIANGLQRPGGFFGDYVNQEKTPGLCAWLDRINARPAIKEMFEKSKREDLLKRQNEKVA
Protocol: Similar to the in vitro assay in 5.2., the compound of formula VII was diluted from a 30 mM stock solution in DMSO to 50 μM in 20 mM Tris-HCl (pH 7.5), 1 mM glutathione and 15 μg/ml LigF was added. However, the reaction mixture was incubated at 37° C. and the read-out was different: using HPLC-MS/MS. Reaction samples, as well as a control sample without enzyme and Z-4-OHT (4-hydroxytamoxifen) as a standard were diluted 2:3 in MeOH and 2 μl was injected onto a BioBasic C18 column (5 μm, 2.1×150 mm, Thermo; using a Thermo EC Finnigan Mod Micro AS autosamples and Thermo EC Quarternary pump, Finnigan Mod. Surveyor MS chromatograph) with a water-MeOH gradient (60-90% MeOH in 30 min; 90-100% in 5 min; 100 μl/min flow rate). LC-MS coupling was performed with the Advion Triversa Nanomate (Advion BioSciences, Ithaca, N.Y., USA) as the nanoESI source performing nanoelectrospray through chip technology. The Nanomate was attached to an LTQ-FT Ultra mass spectrometer and operated at a spray voltage of 1.7 kV and a delivery pressure of 0.5 psi in positive mode. In a LTQ-FT Ultra (Thermo Scientif) mass spectrometer, analyses were performed using 40V capillary voltage and 120V tube lens voltage. MS/MS was operated in a data-dependent acquisition (DDA) mode and in selected reaction monitoring (SRM) mode. Survey MS scans were acquired in the FT with the resolution (defined at 400 m/z) set to 100,000. Up to six of the most intense ions per scan were fragmented and detected in the linear ion trap. The ion count target value was 1,000,000 for the survey scan and 50,000 for the MS/MS scan. Target ions already selected for MS/MS were dynamically excluded for 30 s. For SRM, maximum injective was set to 400 ms and 2 microscans average.
Data are represented as XIC (extracted ion chromatogram) peak areas of parallel reaction monitoring (PRM) transitions, using QuanBrowser (Xcalibur software 2.0SR2).

[1] = biological target: T2, Cre-ER^T2 fusion protein in MEFs (Homo sapiens, UniProt P03372, G400V/L544A/M543A/V595A); assay: Co-culture MEF recombination assay (mTmG reporter, FACS); type: cell-based, mouse
T2 construct: Cre recombinase (fusion partner); host or cells: mouse embryonic fibroblasts from UbC-Cre-ER^T2; mTmG transgenic mice; the other entry of the earlier key: cre (P06956, Recombinase cre)
T2 sequence (P03372 with tags, fused parts or gaps G400V/M543A/L544A/V595A): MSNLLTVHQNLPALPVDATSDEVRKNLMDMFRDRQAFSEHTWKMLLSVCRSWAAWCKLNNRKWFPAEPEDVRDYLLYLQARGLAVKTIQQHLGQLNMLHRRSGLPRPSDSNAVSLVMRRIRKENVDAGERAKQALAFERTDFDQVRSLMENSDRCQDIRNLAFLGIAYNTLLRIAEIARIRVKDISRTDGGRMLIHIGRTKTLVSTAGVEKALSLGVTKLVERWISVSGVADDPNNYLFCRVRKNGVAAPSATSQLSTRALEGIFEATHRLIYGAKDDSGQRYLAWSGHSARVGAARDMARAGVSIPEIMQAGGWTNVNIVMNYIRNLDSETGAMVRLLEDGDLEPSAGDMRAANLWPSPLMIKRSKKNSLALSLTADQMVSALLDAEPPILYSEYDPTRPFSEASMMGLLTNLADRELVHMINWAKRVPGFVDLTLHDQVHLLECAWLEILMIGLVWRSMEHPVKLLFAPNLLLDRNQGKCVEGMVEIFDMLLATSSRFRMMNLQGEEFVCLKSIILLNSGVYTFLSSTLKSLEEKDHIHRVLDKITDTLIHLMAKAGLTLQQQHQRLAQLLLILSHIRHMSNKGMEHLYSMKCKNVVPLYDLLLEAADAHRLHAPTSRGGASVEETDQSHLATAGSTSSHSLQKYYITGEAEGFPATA
Source text: The mouse model carries recombination reporter mTmG (JAX stock: 007676). This system expresses the membrane bound tdTomato (tandem dimer tomato; mT stands for membrane Tomato), which is a red fluorescent protein. Upon recombination with an activated Cre enzyme, the coding sequence for mT as well as a stop codon, being between loxP sites, is excised. […] Effectively this means that in the presence of a Cre enzyme, or in the presence of a 4-OHT activated Cre-ER^T2 fusion protein, the cells stop their production of tdTomato and proceed to express the EGFP; this genetic switch can be efficiently quantified by flow cytometry analysis. The mouse strain expressing mTmG was then crossed to a mouse carrying a Cre-ER^T2 fusion protein in all cells (UbC-Cre-ER^T2; Jax Stock: 008085). From the dual transgenic mouse, as well as from the reporter strain without Cre-ER^T2, MEFs were harvested from 14-day-old embryos. Briefly, pregnant females were sacrificed 14 days after plug formation, uteri were removed, and embryos were dissected: heads and fetal livers were discarded. The rest was minced and digested with trypsin and grown in 10-cm plates with aforementioned supplemented DMEM.
MEF recombination: MTO129, transduced with pLenti PGK-LigF (puro) or with an equivalent empty vector was trypsinized and single cells added onto UbC-Cre-ER^T2; mTmG (or control mTmG-only) MEFs grown in 12-well plates. The next day, either Z-4-OHT or the prodrug of formula VII was added in concentrations ranging from 1000 to 1 nM. Two days later, cells were trypsinized and analyzed by flow cytometry for TdTomato/EGFP fluorescence (Gallios, Beckman Coulter). Fluorescence was analyzed on viable cells in 2 dimensions and scored as percentages in the 4 quadrants. EGFP positive quadrants (Q2 and Q4, with or without TdTomato) were considered recombined and the fraction of the total was calculated. Data are the average (+SD) from two independent experiments.

[2] = tested on: NTCF4-ER^T2 fusion protein in LS174T cells; assay: Co-culture LS174T-NTCF4-ER^T2 gene expression assay; type: cell-based; conditions: HEK293T-LigF, 10 μM, 16h
Protocol: These LS-NE cells were cultured in DMEM supplemented with L-glutamine and 10% fetal bovine serum (Life Technologies) at 37° C. and 5% CO2.
HEK293T cells transduced with pLenti PGK-LigF (puro) or with an equivalent empty vector were co-plated with LS174T-NTCF4-ER^T2 (LS-NE) cells, in a ratio of 1/10 in 6-well plates. Co-cultures were treated with DMSO, 1 μM Z-4-OHT or the prodrug of formula VII at 1 or 10 μM. After 16h, cells were lysed in trizol for RNA extraction (PureLink RNA Mini Kit, Life Technologies) and cDNA preparation (High Capacity cDNA RT kit, Applied Biosysytems). […] Data in FIG. 11 were normalized to the housekeeping gene, and to DMSO controls. Data are the average of technical replicates (+SD) from a single experiment.

Cre-ER^T2 fusion protein = biological target: T3, Cre-ER^T2 fusion protein (Homo sapiens, UniProt P03372, G400V/L544A/M543A/V595A); assay: In vivo gene recombination in UbCre-ER^T2; mTmG mice (EGFP immunohistochemistry); parameters: species or system mouse
T3 construct: Cre recombinase (fusion partner); tissue Jax Stock: 008085; host or cells: liver of transgenic UbCre-ER^T2; mTmG mice (transgene product); the other entry of the earlier key: cre (P06956, Recombinase cre)
Protocol: Using the UbCre-ER^T2; mTmG mice described in example 6, we treated these animals with the prodrug of formula VII at 1 or 5 μmol (approximately 0.6 or 3 mg, respectively) or with a vehicle control (oil). Five days after treatment, mice were sacrificed, and the liver was fixed overnight in 10% phosphate-buffered formalin (sigma) and embedded in paraffin, similar to the description of example 3 (FIG. 1).

[3] = tested on: TGFβ signaling (12×CAGA-Firefly_Luc reporter) in HEK293T cells; assay: In vitro CAGA-Luciferase reporter assay; type: cell-based; conditions: Homo sapiens, HEK-293T, 5 ng/ml TGFB1, 16h, read-out: IC50, TGFβ signaling inhibition (CAGA-Luciferase)
Protocol: HEK293T cells were purchased from the ATCC and cultured in DMEM supplemented with L-glutamine and 10% fetal bovine serum (Life Technologies) at 37° C. and 5% CO2. The cells were seeded in 24-well plates and transfected with plasmids encoding 12×CAGA-Firefly_Luc and Tk-Renilla_Luc (75 and 10 ng per well, respectively), using polyethylenimine (Polysciences) as transfection reagent. After 7h, medium was replaced for starvation medium (DMEM+0.05% FBS). […] Luciferase activity was measured 16h later using the Dual Luciferase Assay kit (Promega): media were aspirated, and cells were lysed in 200 μl passive lysis buffer (kit) for 20 minutes. Bioluminescence was measured in a Berthold Lumat LB6507 luminometer (18 μl reagents, 10 seconds measurements). […]
When adding the luciferase substrate (luciferin) to the cell lysates, emission of light implies an active TGF-β pathway due to the production of pSMAD2/3-SMAD4, whereas no or little observed light would imply inhibition of the pathway by the inhibitor. Finally, the results could be normalized by the addition of Stop & Glo® which quenches the firefly luciferase enzyme/substrate and activates the Renilla transfection control, producing light which was again measured by the luminometer and used to normalize the data.

MTO129 liver metastases [4] = assay: Mouse liver metastasis initiation/formation assay with MTOs; type: in vivo; conditions: for Efficacy (Cure rate): two weeks, mice with no metastases; for metastatic tumor growth inhibitory capacity (bioluminescence): day 3 until day 14
Source text: Mouse tumor organoids (MTOs) are derived from compound transgenic mice (conditional mutations in Apc, Kras, Trp53 and Tgfbr2, as well as bearing Lgr5-EGFP/CreER^T2) of the C57BL6/J strain and cultured as described in Tauriello et al. 2018 Nature 554(7693): 538-543. doi: 10.1038/nature25492. Organoids are tumor epithelial cells grown in a 3D matrix where they adopt an organotypic architecture, typically as spheroids with a lumen. In this way, cells retain a relatively normal polarity (which means that the outside surface, inside/luminal surface and cell-cell contacts are individually specialized), which is more physiological than in conventional 2D cell culture.
In all experiments described in present invention MTO129 were used (Tauriello et al. Nature. 2018).
In patients, treatment doses were reduced to 80 to 150 mg b.i.d in a regime of 14 days on-14 days off.
MTOs expressing a luciferase reporter were measured by bioluminescence imaging, using retroorbital injection of 50 μl 15 mg/ml D-luciferin potassium salt (Resem BV). Photons per second from the region spanning thorax/abdomen were quantified and normalized to the measure at the day of injection.
Control mice were treated with 150 μl of vehicle.
In the experiment shown in FIG. 13, potency of the indicated compounds to inhibit metastasis formation was assessed. Mice were treatments with indicated compounds started two days after MTO129 transplantation and continued during two weeks. Mice were sacrificed at 4 weeks post transplantation and liver metastases (LiMs) were counted by eye on fixed livers.

[5] = In vivo toxicity, histopathology; parameters: species or system mouse; conditions: for Sternum side effect, mice affected per mice tested / Long bones side effect, mice affected per mice tested: two weeks
Source text: Number of cured mice, i.e. mice with no metastases at experimental end points, were score. Intestines, skin samples, hearts, thoracic skeletons and limbs of these mice were fixed in 10% formalin, phosphate buffered (Sigma). Soft tissues were embedded in paraffin blocks, sectioned and stained with haematoxylin & eosin. Bones were first decalcified for 2 weeks before embedding, sectioning and staining. An experienced pathologist analyzed tissues for histopathological abnormalities. […] Furthermore, the cartilage ossification zone at the ends of the long bones was analysed for defects in the hypertrophic zone.

MTO129 liver metastases [6] = conditions: Tauriello et al. Nature 2018 (10×); cited from earlier work

For `CCC(=C(c1ccc(OCCN(C)C)cc1)c1ccc(OCC(=O)c2ccc(O)c(OC)c2)cc1)c1ccccc1` (racemic) [prodrug of formula VII, 2-(4-(1-(4-(2-(dimethylamino)ethoxy)phenyl)-2-phenylbut-1-en-1-yl)phenoxy)-1-(4-hydroxy-3-methoxyphenyl)ethan-1-one], which cleavage plateau (LigF; 50 μM, 15 μg/ml LigF) is on record?
The cleavage plateau was 50%.

What about the “time to half way to the plateau” value (LigF; 50 μM, 15 μg/ml LigF) of the same molecule?
The value was 3 h.

And the “time to reach cleavage plateau” value (LigF; 50 μM, 15 μg/ml LigF)?
Its value is “approximately 30 hours”.

And the “stability in control without LigF” value (LigF; all other components present)?
The value was “remained intact”.

What about the “gene recombination in MEFs (fraction EGFP positive)” value ([1]; UbC-Cre-ER^T2, mTmG MEFs with LigF-expressing MTO129, 1000 to 1 nM, two days) of the same molecule?
The value was “very similar to 4-OHT”.

And the “gene recombination in MEFs (fraction EGFP positive)” value ([1]; without LigF etherase (printed: MEFs lacking UbC-ER^T2))?
The value was “only some recombination at the highest dose”.

What about the “transcriptional switch (KRT20 up, ASCL2 down)” value [2] of the same molecule?
Its value is “achieved the same response”.

What about the “gene recombination and EGFP expression in liver” value (Cre-ER^T2 fusion protein; 1 or 5 μmol, five days after treatment) of the same molecule?
The value was “dose-dependent activation of gene recombination and EGFP expression”.

And the “gene recombination in peripheral tissues compared to the liver” value (Cre-ER^T2 fusion protein; Example 7 mouse treatment)?
Its value is “lower”.

Which results are given for `Cc1cccc(-c2nn3c(c2-c2ccnc4ccc(C(N)=O)cc24)CCC3)n1` [Galunisertib, reference compound]?
IC50 [3]: 359 nM; Efficacy (Cure rate) (MTO129 liver metastases [4]; 1x dose): 0%; Efficacy (Cure rate) (MTO129 liver metastases [4]; 3x dose): ~70%; Efficacy (Cure rate) (MTO129 liver metastases [4]; 9x dose): ~100%; metastatic tumor growth inhibitory capacity (MTO129 liver metastases [4]; 9× dose, as seen in FIG. 3): highly effective; metastatic tumor growth inhibitory capacity (bioluminescence) (MTO129 liver metastases [4]; FIG. 4, 1× dose): not effective; metastatic tumor growth inhibitory capacity (bioluminescence) (MTO129 liver metastases [4]; FIG. 4, 3× dose): mostly effective; effective dose (>50% efficacy) (MTO129 liver metastases [4]; oral, divided b.i.d.): 480 mg/kg/day; Combined side effects per number tested ([5]; 1x dose): 0/5; Toxicity (%) ([5]; 1x dose): 0%; Sternum side effect, mice affected per mice tested ([5]; 1x dose): 0/5; pathological analysis of the skin and intestine ([5]; 1× doses): No pathological anomalies; Combined side effects per number tested ([5]; 3x dose): 1/9; Toxicity (%) ([5]; 3x dose): 11%; Long bones side effect, mice affected per mice tested ([5]; 3x dose): 0/5; Sternum side effect, mice affected per mice tested ([5]; 3x dose): 1/4; Combined side effects per number tested ([5]; 9x dose): 6/10; Toxicity (%) ([5]; 9x dose): 60%; Long bones side effect, mice affected per mice tested ([5]; 9x dose): 2/3; Sternum side effect, mice affected per mice tested ([5]; 9x dose): 4/7; toxic dose (toxicity >50%) ([5]; 9× dose equivalent): 1440 mg/kg/day; doses needed to effectively treat metastatic cancers (MTO129 liver metastases [6]): up to 1600 mg/kg/day

— patent US20220089600A1, “TGFß INHIBITOR AND PRODRUGS” (FUNDACIÓ INSTITUT DE RECERCA BIOMÈDICA (IRB BARCELONA), priority 2018, published 2022)
